The values that follow come from patent US9149468B2, “Multicomponent crystals made ([2-amino-6-(4-fluoro-benzylamino)-pyridin-3-yl]-carbamic acid ethyl ester and 2-[2-[(2,6-dichlorphenyl)-amino]-phenyl]-acetic acid” (TEVA GmbH, priority 2010, dated 2015).

The conditions of test [1]: mice, 15 mg per kg flupirtine maleate combined with various dosages of NSAIDS; cited from earlier work.
For test [2] the following is noted: rat, 35 mg per kg flupirtine maleate combined with various dosages of NSAIDS; cited from earlier work.
A short description of test [3]: pain and inflammation model (methods of DE 36 65 538). The class given is in vivo. To be noted: animal model. From the text:
The methods disclosed therein are herewith incorporated as a reference, […]

Where a name gives a salt, the structure may show the parent alone. Read-outs that look alike come from different tables or passages of the source.

On to `CCOC(=O)Nc1ccc(NCc2ccc(F)cc2)nc1N` [flupirtine maleate], for which the “effect on antinociceptive activity of paracetamol, acetyl salicylic acid, and diclofenac” value in test [1] and in test [2] was “enhances” each time.

In the case of `CCOC(=O)Nc1ccc(NCc2ccc(F)cc2)nc1N.O=C(O)Cc1ccccc1Nc1c(Cl)cccc1Cl` [multicomponent crystal according to the invention of ([2-amino-6-(4-fluoro-benzylamino)-pyridin-3-yl]carbamic acid ethyl ester and 2-[2-[(2,6-dichlorophenyl)-amino]-phenyl]acetic acid], the “effects in pain and inflammation model compared with the test results of DE 36 65 538” value in test [3] is “qualitatively comparable”.
